Source: patent publication US8892197B2, “Method and apparatus to control conduction through the heart to treat cardiac conditions” (Medtronic, Inc., priority 2005, dated 2014)

Assays:
[1] = test system: AVN conduction and refractoriness; test: Incremental ACH infusion into the AVN: ventricular rate during electrically induced AF, AVN refractoriness, intervals, blood pressure; format: in vivo, Canines; conditions: for Ventricular rate during electrically induced AF: infusion into AVN, decreased from 182±32
From the text: (§1) This study evaluated the effect of locally administered acetylcholine (ACH) on AVN conduction and refractoriness properties during sinus rhythm and AF. Canines (n=7) were anesthetized, and instrumented to assess atrial and ventricular electrophysiology as well as arterial blood pressure. A custom drug delivery catheter was fixed into the AVN region using a combination of standard electrophysiological mapping techniques and image guided therapy via a cardiac navigation system.
Subsequently, incremental doses of ACH starting at 10 ug/min were infused into the AVN until complete atrioventricular heart block (AVB) was observed.

AVN conduction = test: AV block duration after ACH bolus, direct AVN injection vs. intravenous, anesthetized canines; format: in vivo
From the text: as §1

[2] = Intravenous Bolus (n = 5), identical dose

In the case of `CC(=O)OCC[N+](C)(C)C` [ACH, acetylcholine], the “PP intervals, HV intervals and blood pressure” value ([1]; ACH dose producing first AVB) is reported as “remained unchanged”, the “Time to full reversal of observed effects after stopping ACH infusion” value ([1]; after stopping infusion into AVN) is reported as ≤ 20 min and the “Ventricular rate during electrically induced AF” value ([1]; dosage inducing first degree AVB, p<0.05) is reported as 77±28 bpm. For the same molecule, the “Ventricular rate during electrically induced AF” value ([1]; dosage inducing third degree AVB, p<0.05) was 28±8 bpm, the “AVN effective refractory period (ERP)” value ([1]; first degree AVB dose, pacing cycle length 400 msec, increased from 186±37, p=0.06) was 282 ± 33 ms and the Wenckebach cycle length ([1]; first degree AVB dose, increased from 271±29, p<0.05) was 378 ± 58 ms. For the same molecule, the “AV Block III duration” value (AVN conduction; Direct AVN Bolus (n = 6)) was 12.30 ± 4.72 min, the “Overall AV Block duration (AV block I, II and III)” value (AVN conduction; Direct AVN Bolus (n = 6)) was 41.19 ± 27.14 min and the “AV Block III duration” value (AVN conduction; [2]) was 0.00 ± 0.00 min. For the same molecule, the “Overall AV Block duration (AV block I, II and III)” value (AVN conduction; [2]) was 0.31 ± 0.43 min.
